Data published in US20250313546A1, “NUCLEIC ACID BINDERS” (UNIVERSITY OF STRATHCLYDE, priority 2022, published 2025).
Values after ≈ are worked out from the molar mass of the structure shown.

Columns and labels:
[1] = test system: Staphylococcus aureus (ATCC 43300); test: Antibacterial MIC, broth microdilution (CLSI); format: cell-based; conditions: for MIC80: Staphylococcus aureus, ATCC43300, read-out: MIC80 S. aureus; for S. aureus Selectivity Indices, Group: Alkyl Amidines and NH Pyrroles
[2] = test system: Escherichia coli (ATCC 25922); test: Antibacterial MIC, broth microdilution (CLSI); format: cell-based; conditions: Escherichia coli, ATCC25922; read-out: MIC80 E. coli
[3] = test system: Enterococcus faecalis (ATCC 51299); test: Antibacterial MIC, broth microdilution (CLSI); format: cell-based; conditions: Enterococcus faecalis, ATCC51299; read-out: MIC80 E. faecalis
T. equiperdum = test: Resazurin-based (Alamar blue) drug sensitivity assay; conditions: Trypanosoma equiperdum, read-out: IC50 T. equiperdum
[4] = test system: PolyAU double stranded RNA; test: Fluorescence intercalator displacement (FID) assay, SYBR-safe probe; conditions: 20 μM compound, 30° C., lower % = stronger binding
Procedure, shortened: (§1)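 Probe displacement was measured at 30 °C in 1 mM phosphate pH 7.4 containing SybrSafe (12500-fold dilution), 3.76 ng/mL nucleic acid (salmon dsDNA or polyAU dsRNA) and 20 μM compound. Fluorescence loss is normalised between probe-only and probe-plus-nucleic-acid controls.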

[5] = test system: Genomic double stranded DNA (salmon); test: as above; conditions: 20 μM compound, 30° C., lower % = stronger binding
Procedure, shortened: as §1

T. evansi AntTat 3/3 = test: Resazurin-based (Alamar blue) drug sensitivity assay; conditions: read-out: IC50 T. evansi
Protocol: A detailed description of the procedure for evaluating activity against trypanosomes, using an Alamar Blue (resazurin) assay, is described below.
The bloodstream form (BSF) T. b. brucei s427 (see De Koning, H. P. et al., Mol. Biochem. Parasitol. 2000, 106, 181-185), T. evansi AntTat 3/3 (see Dean, S. et al., Proc. Natl. Acad. Sci. USA, 2013, 110, 14741-14746), and T. equiperdum (see Stewart, M. L. et al., Eukaryot. Cell, 2010, 9, 336-343) were cultured in HMI-9 medium (Life Technologies, Paisley, United Kingdom) supplemented with 10% heat inactivated Foetal Bovine Serum (FBS (PAA Laboratories Linz, Austria)), 14 μL/L β-mercaptoethanol (BDH, Dorset, UK), and 3.0 g/L NaHCO3 (Sigma-Aldrich) and adjusted to pH 7.4. These cell lines were maintained at 37° C. in a humidified, 5% CO2 environment.
A resazurin-based (Alamar blue) drug sensitivity assay was used to assess and compare the activity of standard trypanocides in the different cell lines investigated (see Gould, M. K. et al., Anal. Biochem., 2008, 382, 87-93). Briefly, 23 doubling dilutions of the test compound of the invention, starting at 100 μM, and a compound-free control were prepared in 100 μL medium in a 96-well white plate (Greiner Bio-one, Frickenhausen, Germany). The cells were adjusted to 2×10^4 cells/mL for T. b. brucei and T. equiperdum; 4×10^4 cells/mL for T. evansi; and 5×10^5 cells/mL for T. congolense in the appropriate medium. 100 μL of the adjusted cells was then added to the wells containing drug dilutions and incubated for 48 h under respective culture condition. Thereafter, 20 μL of 125 mg/mL resazurin sodium dye was added, and the plate was incubated for a further 24 h.

C. neoformans (F10025) = conditions: Cryptococcus neoformans, read-out: MIC99 C. neoformans
Candida auris (H.17.157) = conditions: for MIC99: Candidozyma auris, read-out: MIC99 Candida auris; for C. auris Selectivity Indices, Group: Alkyl Amidines and NH Pyrroles
[6] = test system: A. fumigatus A1160 (MFIG001); conditions: Aspergillus fumigatus, read-out: MIC99 A. fumigatus A1160
Protocol: (§2) The Minimum Inhibitory Concentration (MIC, at 99% inhibition) of the compounds was determined using the broth microdilution method as recommended by EUCAST (EUCAST Definitive Document E.DEF 9.3.2, Method for the determination of broth dilution minimum inhibitory concentrations of antifungal agents for conidia forming moulds and EUCAST Definitive Document E.DEF 7.3.2 Method for the determination of broth dilution minimum inhibitory concentrations of antifungal agents for yeasts).

[7] = test system: Candida glabrata (ACPF3309); conditions: for MIC99: Nakaseomyces glabratus, read-out: MIC99 Candida glabrata
[8] = test system: Rhizopus arrhizus (NEQAS12.35321); conditions: read-out: MIC99 Rhizopus arrhizus
Protocol: as §2

[9] = test system: SARS-CoV-2 (hCoV-19/Australia/VIC01/2020); test: SARS-CoV-2 microplaque inhibition assay in Vero-E6 cells; format: cell-based
[10] = SI, IC50 (μM)/MIC80 (μM), HEK293 cytotoxicity
[11] = SI, IC50 (μM)/MIC99 (μg/mL), HEK293 cytotoxicity
[12] = SI, IC50 (μM)/MIC99 (μg/mL), HEK293 cytotoxicity, numeric value

SMILES | MIC80 [1] [µM] | MIC80 [2] [µM] | MIC80 [3] [µM] | IC50 (T. equiperdum) [nM] | % Normalised Fluorescence with polyAU RNA [4] [%] | % Normalised Fluorescence with gDNA [5] [%] | IC50 (T. evansi AntTat 3/3) [nM] | S. aureus Selectivity Indices, Group [1, 10] | S. aureus Selectivity Index (SI) ([1]; SI, IC50 (μM)/MIC80 (μM), HEK293 cytotoxicity, numeric value) | MIC99 (C. neoformans (F10025)) [µg/mL] | MIC99 (Candida auris (H.17.157)) [µg/mL] | C. auris Selectivity Indices, Group (Candida auris (H.17.157); [11]) | C. auris Selectivity Index (SI) (Candida auris (H.17.157); [12]) | MIC99 [6] [µg/mL] | MIC99 [7] [µg/mL] | C. glabrata Selectivity Indices, Group ([7]; SI, IC50 (μM)/MIC99 (μg/mL), HEK293 cytotoxicity, Alkyl Amidines and NH Pyrroles) | C. glabrata Selectivity Index (SI) [7, 12] | MIC99 [8] [µg/mL] | SARS-CoV-2 Selectivity Indices, Group ([9]; SI, IC50 (μM)/IC50 (μM), HEK293 cytotoxicity, Alkyl Amidines and NH Pyrroles) | IC50 ([9]; Severe acute respiratory syndrome coronavirus 2, Vero C1008, plaque inhibition, Vero-E6 cells, read-out: IC50 SARS-CoV-2) [nM]
Cn1cc(NC(=O)c2ccc(/C=C/c3ccc4nonc4c3)cc2)cc1C(=O)Nc1c[nH]c(C(=O)NCCN2CCOCC2)c1 [IIIb1, (E)-4-(4-(2-(benzo[c][1,2,5]oxadiazol-5-yl)vinyl)benzamido)-1-methyl-N-(5-((2-morpholinoethyl)carbamoyl)-1H-pyrrol-3-yl)-1H-pyrrole-2-carboxamide] | 5 to 25 (≈ 3.04 to 15.2 µg/mL) | > 100 | > 100 | 10 to 100 | 30 | 47 | 10 to 100 | – | – | – | – | – | – | – | – | – | – | – | – | –
Cn1cc(NC(=O)c2ccc(/C=C/c3cnc4ccccc4c3)cc2)cc1C(=O)Nc1c[nH]c(C(=O)NCCC(=N)N)c1 [IIIa2, (E)-N-(5-((3-amino-3-iminopropyl)carbamoyl)-1H-pyrrol-3-yl)-1-methyl-4-(4-(2-(quinolin-3-yl)vinyl)benzamido)-1H-pyrrole-2-carboxamide] | < 5 | > 100 | > 100 | 10 to 100 | 21 | 17 | 10 to 100 | D (D: SI > 10) | 11 | < 5 | 5 to 25 (≈ 8.7 to 43.5 µM) | C (Group C 1 < SI <= 3) | 3 | 5 to 25 (≈ 8.7 to 43.5 µM) | < 5 | C (Group C 20 < SI <= 50) | 47 | 25 to 50 (≈ 43.5 to 87 µM) | – | –
Cn1cc(NC(=O)c2ccc(/C=C/c3cnc4ccccc4c3)cc2)cc1C(=O)Nc1c[nH]c(C(=O)NCCN2CCOCC2)c1 [IIIb4, (E)-1-methyl-N-(5-((2-morpholinoethyl)carbamoyl)-1H-pyrrol-3-yl)-4-(4-(2-(quinolin-3-yl)vinyl)benzamido)-1H-pyrrole-2-carboxamide] | < 5 | > 100 | > 100 | 10 to 100 | 86 | 37 | 10 to 100 | – | – | > 50 | – | – | – | > 50 | > 50 | – | – | – | – | –
[H]/N=C(\CCNC(=O)c1cc(NC(=O)c2cc(NC(=O)c3ccc(C=Cc4ccc(N(C)C)cc4)nc3)cn2C)cn1C)NCC [Ia1, (E)-6-(4-(dimethylamino)styryl)-N-(5-((5-((3-(ethylamino)-3-iminopropyl)carbamoyl)-1-methyl-1H-pyrrol-3-yl)carbamoyl)-1-methyl-1H-pyrrol-3-yl)nicotinamide] | 5 to 25 (≈ 3.05 to 15.2 µg/mL) | > 100 | 25 to 100 (≈ 15.2 to 61 µg/mL) | 100 to 1000 | 5 | 13 | 10 to 100 | B (Group B: 3 < SI <= 5) | – | < 5 | 5 to 25 (≈ 8.2 to 41 µM) | B (Group B: 0.4 < SI <= 1) | – | 5 to 25 (≈ 8.2 to 41 µM) | < 5 | – | – | > 50 | B (Group B: 4.1 < SI <= 10) | 2000 to 8000
O=C(Nc1c[nH]c(C(=O)Nc2c[nH]c(C(=O)NCCN3CCOCC3)c2)c1)c1ccc(/C=C/c2cnc3ccccc3c2)cc1 [IIIb5, (E)-N-(2-morpholinoethyl)-4-(4-(4-(2-(quinolin-3-yl)vinyl)benzamido)-1H-pyrrole-2-carboxamido)-1H-pyrrole-2-carboxamide] | < 5 | > 100 | > 100 | 10 to 100 | 59 | 49 | 10 to 100 | – | – | > 50 | – | – | – | > 50 | > 50 | – | – | – | – | –
